Laboratory results from patent US12516016B2, “GPX4 inhibitors, pharmaceutical compositions thereof, and their use for treating GPX4-mediated diseases” (EUBULUS BIOTHERAPEUTICS (HONG KONG) LIMITED, priority 2020, dated 2026).

Test system: hepatocellular carcinoma cell line Hub-7
Experiment: Cell proliferation assay (CELL-TITER GLO cell viability)
Type: cell-based
Conditions: 24 h, Hub-7 cells, 24 h incubation, read-out: Inhibition of Cell Proliferation EC50
Description: The activity of a test compound was determined in a cell proliferation assay using the hepatocellular carcinoma cell line […]. Cells (4,000 cells per well) were seeded in a 96-well tissue culture plate. After incubated overnight, a test compound was added at predetermined concentrations, starting with 10 μM and followed by 3-fold serial dilution. After the cells were incubated for 24 h, cell viability was determined using a CELL-TITER GLO® assay. The CELL-TITER GLO® reagent (50 μL) was added to each well and the luminescence was measured by a multimode microplate reader after a brief period of shaking. EC50 values were determined for the test compound. The results are summarized in Table 1, wherein A represents a value no greater than 100 nM, B represents a value greater than 100 nM but no greater than 500 nM, C represents a value greater than 500 nM but no greater than 2 μM, D represents a value greater than 2 μM but no greater than 10 μM; and E represents a value greater than 10 μM.

Compound	EC50
C#CC(=O)N(c1cccc(CO)c1)C(C(=O)NCc1ccccc1)c1cccc(N)c1 (centres unmarked) [A39, N-(1-(3-Aminophenyl)-2-(benzylamino)-2-oxoethyl)-N-(3-(hydroxymethyl)-phenyl)propiolamide]	2 to 10 µM
C#CC(=O)N(c1ccn(C)c(=O)c1)C(C(=O)NCc1ccccc1)c1ccccc1 (centres unmarked) [A102, N-(2-(Benzylamino)-2-oxo-1-phenylethyl)-N-(1-methyl-2-oxo-1,2-dihydropyridin-4-yl)propiolamide]	2 to 10 µM
C#CC(=O)N(c1cccc(O)c1)C(C(=O)NCc1ccccc1)c1cccc(N)c1 (centres unmarked) [A37, N-(1-(3-Aminophenyl)-2-(benzylamino)-2-oxoethyl)-N-(3-hydroxyphenyl)-propiolamide]	≤ 0.1 µM
C#CC(=O)N(c1ccc2c(c1)OC(F)(F)O2)C(C(=O)NCc1ccccc1)c1ccccc1 (centres unmarked) [A99, N-(2-(Benzylamino)-2-oxo-1-phenylethyl)-N-(2,2-difluorobenzo[d][1,3]dioxol-5-yl)propiolamide]	≤ 0.1 µM
C#CC(=O)N(c1cccc(Cl)c1)C1(C(=O)NCC(=O)N2CCCC(CO)C2)CCOCC1 (centres unmarked) [A194, 4-(N-(3-Chlorophenyl)propiolamido)-N-(2-(3-(hydroxymethyl)piperidin-1-yl)-2-oxoethyl)tetrahydro-2H-pyran-4-carboxamide]	2 to 10 µM
C#CC(=O)N(c1cccc(Cl)c1)C1(C(=O)NCc2ccccc2)COC1 [A86, N-Benzyl-3-(N-(3-chlorophenyl)propiolamido)oxetane-3-carboxamide]	0.1 to 0.5 µM
O=C(NCCc1ccccc1)C(c1ccc([N+](=O)[O-])cc1)N(C(=O)CCl)c1cccc(O)c1 (centres unmarked) [C9, 2-Chloro-N-(3-hydroxyphenyl)-N-(1-(4-nitrophenyl)-2-oxo-2-(phenethylamino)-ethyl)acetamide]	2 to 10 µM
C#CC(=O)N(c1ccc(C(=O)OC)cc1)C(C(=O)NCc1ccccc1)c1ccc(N)cc1 (centres unmarked) [A69, Methyl 4-(N-(1-(4-aminophenyl)-2-(benzylamino)-2-oxoethyl)propiolamido)-benzoate]	≤ 0.1 µM
C#CC(=O)N(c1cccc(Cl)c1)C1(C(=O)NCC(=O)NCc2ccccc2)CCOCC1 [A188, N-(2-(Benzylamino)-2-oxoethyl)-4-(N-(3-chlorophenyl)propiolamido)tetrahydro-2H-pyran-4-carboxamide]	0.1 to 0.5 µM
C#CC(=O)N(c1ccc(Cl)cc1)C(C(=O)NC(C)(C)C)c1cccc(N)c1 (centres unmarked) [A119]	≤ 0.1 µM
C#CC(=O)N(c1cccc(NS(C)(=O)=O)c1)C(C(=O)NCc1ccccc1)c1cccc(N)c1 (centres unmarked) [A42, N-(1-(3-Aminophenyl)-2-(benzylamino)-2-oxoethyl)-N-(3-(methylsulfonamido)-phenyl)propiolamide]	2 to 10 µM
C#CC(=O)N(c1ccc2[nH]ccc2c1)C1(C(=O)NCc2ccccc2)CCOCC1 [A152, 4-(N-(1H-Indol-5-yl)propiolamido)-N-benzyltetrahydro-2H-pyran-4-carboxamide]	2 to 10 µM
C#CC(=O)N(c1cccc(Cl)c1)C(C(=O)NCc1ccccc1)c1ccncc1 (centres unmarked) [A124]	0.5 to 2 µM
C#CC(=O)N(C1(C(=O)NCc2ccccc2)CCOCC1)C1(c2ccccc2)CC1 [A144, N-Benzyl-4-(N-(1-phenylcyclopropyl)propiolamido)tetrahydro-2H-pyran-4-carboxamide]	≤ 0.1 µM
C#CC(=O)N(c1cccc2nsnc12)C1(C(=O)NCc2ccccc2)CCOCC1 [A161, 4-(N-(Benzo[c][1,2,5]thiadiazol-4-yl)propiolamido)-N-benzyltetrahydro-2H-pyran-4-carboxamide]	≤ 0.1 µM
C#CC(=O)N(c1cccc2c1CCC2=O)C1(C(=O)NCc2ccccc2)CCOCC1 [A148, N-Benzyl-4-(N-(1-oxo-2,3-dihydro-1H-inden-4-yl)propiolamido)tetrahydro-2H-pyran-4-carboxamide]	≤ 0.1 µM
C#CC(=O)N(c1ccc2c(cnn2C)c1)C1(C(=O)NCc2ccccc2)CCCC(C(=O)OC)C1 (centres unmarked) [A177, Methyl 3-(benzylcarbamoyl)-3-(N-(1-methyl-1H-indazol-5-yl)propiolamido)-cyclohexane-1-carboxylate]	≤ 0.1 µM
C#CC(=O)N(c1cccc(Cl)c1)C1(C(=O)NCc2ccccc2)CCCC(O)C1 (centres unmarked) [A171, N-Benzyl-1-(N-(3-chlorophenyl)propiolamido)-3-hydroxycyclohexane-carboxamide]	2 to 10 µM
C#CC(=O)N(c1cccc(Cl)c1)C(C(=O)NCC1COC1)c1ccccc1 (centres unmarked) [A181, N-(3-Chlorophenyl)-N-(2-((oxetan-3-ylmethyl)amino)-2-oxo-1-phenylethyl)-propiolamide]	≤ 0.1 µM
C[Si](C)(C)C#CC(=O)N(c1cccc(Cl)c1)C1(C(=O)NCc2cccc(Cl)c2)CCOCC1 [A195, N-(3-Chlorobenzyl)-4-(N-(3-chlorophenyl)-3-(trimethylsilyl)propiolamido)-tetrahydro-2H-pyran-4-carboxamide]	≤ 0.1 µM

Compound	EC50
C#CC(=O)N(c1cccc(Cl)c1Cl)C(C(=O)NCc1ccccc1)c1ccccc1 (centres unmarked) [A82, N-(2-(Benzylamino)-2-oxo-1-phenylethyl)-N-(2,3-dichlorophenyl)-propiolamide]	≤ 0.1 µM
C#CC(=O)N(c1cccc(Cl)c1)C(C(=O)NCC1CCOCC1)c1ccccc1 (centres unmarked) [A180, N-(3-Chlorophenyl)-N-(2-oxo-1-phenyl-2-(((tetrahydro-2H-pyran-4-yl)methyl)-amino)ethyl)propiolamide]	≤ 0.1 µM
C#CC(=O)N(c1cccc(N)c1)C(C(=O)NCc1ccccc1)c1ccc(N)cc1 (centres unmarked) [A70, N-(3-Aminophenyl)-N-(1-(4-aminophenyl)-2-(benzylamino)-2-oxoethyl)-propiolamide]	0.5 to 2 µM
C=CC(=O)N(c1cccc(Cl)c1)C1(C(=O)NCc2ccccc2)CCOCC1 [B5, N-Benzyl-4-(N-(3-chlorophenyl)acrylamido)tetrahydro-2H-pyran-4-carboxamide]	> 10 µM
C#CC(=O)N(c1cccc(Cl)c1)C(C(=O)NCc1ccc(F)cc1)c1ccccc1 (centres unmarked) [A115, N-(3-Chlorophenyl)-N-(2-((4-fluorobenzyl)amino)-2-oxo-1-phenylethyl)-propiolamide]	≤ 0.1 µM
COc1ccc(N(C(=O)CCl)C(C)C(=O)NCCc2ccccc2)cc1Cl (centres unmarked) [C14]	0.5 to 2 µM
C#CC(=O)N(c1cccc(Cl)c1)C(C(=O)NC(C)(C)C)c1cccc(N)c1 (centres unmarked) [A20, N-(1-(3-aminophenyl)-2-(tert-butylamino)-2-oxoethyl)-N-(3-chlorophenyl)propiolamide]	0.1 to 0.5 µM
C=CC(=O)N(c1ccc2c(cnn2C)c1)C1(C(=O)NCc2ccccc2)CCOCC1 [B11, N-Benzyl-4-(N-(1-methyl-1H-indazol-5-yl)acrylamido)tetrahydro-2H-pyran-4-carboxamide]	> 10 µM
C#CC(=O)N(c1cccc(Cl)c1)C1(C(=O)NCC(=O)N2CCCC(C(=O)OC)C2)CCOCC1 (centres unmarked) [A184, Methyl 1-(2-(4-(N-(3-chlorophenyl)propiolamido)tetrahydro-2H-pyran-4-carboxamido)acetyl)piperidine-3-carboxylate]	0.1 to 0.5 µM
C#CC(=O)N(c1ccc(OC)cc1)C(C(=O)NCc1ccccc1)c1ccc(N)cc1 (centres unmarked) [A60, N-(1-(4-Aminophenyl)-2-(benzylamino)-2-oxoethyl)-N-(4-methoxyphenyl)-propiolamide]	≤ 0.1 µM
C#CC(=O)N(c1ccc(S(N)(=O)=O)cc1)C(C(=O)NCc1ccccc1)c1cccc(N)c1 (centres unmarked) [A50, N-(1-(3-Aminophenyl)-2-(benzylamino)-2-oxoethyl)-N-(4-sulfamoylphenyl)-propiolamide]	> 10 µM
C#CC(=O)N(c1cccc(Cl)c1)C(C(=O)NC(C)(C)C)c1ccc(N)cc1 (centres unmarked) [A5, N-(1-(4-Aminophenyl)-2-(tert-butylamino)-2-oxoethyl)-N-(3-chlorophenyl)-propiolamide]	0.1 to 0.5 µM
C#CC(=O)N(c1ccc2ncsc2c1)C(C(=O)NCc1ccccc1)c1ccccc1 (centres unmarked) [A98, N-(Benzo[d]thiazol-6-yl)-N-(2-(benzylamino)-2-oxo-1-phenylethyl)-propiolamide]	0.1 to 0.5 µM
C#CC(=O)N(c1ccc2scnc2c1)C(C(=O)NCc1ccccc1)c1ccccc1 (centres unmarked) [A88, N-(Benzo[d]thiazol-5-yl)-N-(2-(benzylamino)-2-oxo-1-phenylethyl)-propiolamide]	≤ 0.1 µM
C#CC(=O)N(c1cc(Cl)ccc1Cl)C(C(=O)NCc1ccccc1)c1ccccc1 (centres unmarked) [A145, N-(2-(Benzylamino)-2-oxo-1-phenylethyl)-N-(2,5-dichlorophenyl)propiolamide]	≤ 0.1 µM
O=C(NCCc1ccccc1)C(c1ccc([N+](=O)[O-])cc1)N(Cc1cccs1)C(=O)CCl (centres unmarked) [C8, 2-Chloro-N-(1-(4-nitrophenyl)-2-oxo-2-(phenethylamino)ethyl)-N-(thiophen-2-ylmethyl)acetamide]	2 to 10 µM
C#CC(=O)N(c1cccc2c1OCO2)C1(C(=O)NCc2ccccc2)CCOCC1 [A141, 4-(N-(Benzo[d][1,3]dioxol-4-yl)propiolamido)-N-benzyltetrahydro-2H-pyran-4-carboxamide]	≤ 0.1 µM
C#CC(=O)N(c1ccc2scnc2c1)C1(C(=O)NCc2ccccc2)CCOCC1 [A155, 4-(N-(Benzo[d]thiazol-5-yl)propiolamido)-N-benzyltetrahydro-2H-pyran-4-carboxamide]	0.1 to 0.5 µM
C#CC(=O)N(c1cc2c(cc1I)OCO2)C(C(=O)NCc1ccccc1)c1ccccc1 (centres unmarked) [A146, N-(2-(Benzylamino)-2-oxo-1-phenylethyl)-N-(6-iodobenzo[d][1,3]dioxol-5-yl)-propiolamide]	≤ 0.1 µM

Same assay, conditions: Hub-7 cells, 24 h incubation, control, read-out: EC50

Compound	EC50
COc1ccc(N(C(=O)CCl)C(C(=O)NCCc2ccccc2)c2cccs2)cc1Cl (centres unmarked) [ML-162, reference compound]	0.138 µM

Same assay, conditions: Hub-7 cells, 24 h incubation, read-out: Inhibition of Cell Proliferation EC50

Compound	EC50
COc1ccc(N(C(=O)CCl)C(C(=O)NCCc2ccccc2)c2cccs2)cc1Cl (centres unmarked) [ML-162, reference compound]	0.1 to 0.5 µM
